Measurements reported in PubChem BioAssay AID1963830 (Molecular Pharmacology Branch, DTP, NCI, 2024).

Tested on: 922993-354-T-J3-PDC complex spheroid viability
Assay: Anticancer human tumor 922993-354-T-J3-PDC patient-derived endometrial carcinoma cell line growth inhibition [POLQ]
Conditions: for IC50: curve of first compound; for viability, T/C: stronger effect = lower value; active = viability on the fitted dose curve at most 10% of control; inactive = the rest
Outline: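 Growth inhibition in 3D: complex spheroids (tumor PDC, HUVEC, MSC) treated with POLQ inhibitor combinations; where Cmax unknown, highest tested concentration 10 microM, except SN-38 at 1 microM.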

[1] = second compound 0.0316 µM, first compound 0.0316 µM
[2] = second compound 0.0316 µM, first compound 0.1 µM
[3] = second compound 0.0316 µM, first compound 0.316 µM
[4] = second compound 0.0316 µM, first compound 1 µM
[5] = second compound 0.0316 µM, first compound 3.16 µM
[6] = second compound 0.0316 µM, first compound 10 µM
[7] = second compound 0.1 µM, first compound 0.0316 µM
[8] = second compound 0.1 µM, first compound 0.1 µM
[9] = second compound 0.1 µM, first compound 0.316 µM
[10] = second compound 0.1 µM, first compound 1 µM
[11] = second compound 0.1 µM, first compound 3.16 µM
[12] = second compound 0.1 µM, first compound 10 µM
[13] = second compound 0.316 µM, first compound 0.0316 µM
[14] = second compound 0.316 µM, first compound 0.1 µM
[15] = second compound 0.316 µM, first compound 0.316 µM
[16] = second compound 0.316 µM, first compound 1 µM
[17] = second compound 0.316 µM, first compound 3.16 µM
[18] = second compound 0.316 µM, first compound 10 µM
[19] = second compound 1 µM, first compound 0.0316 µM
[20] = second compound 1 µM, first compound 0.1 µM
[21] = second compound 1 µM, first compound 0.316 µM
[22] = second compound 1 µM, first compound 1 µM
[23] = second compound 1 µM, first compound 3.16 µM
[24] = second compound 1 µM, first compound 10 µM
[25] = second compound 3.16 µM, first compound 0.0316 µM
[26] = second compound 3.16 µM, first compound 0.1 µM
[27] = second compound 3.16 µM, first compound 0.316 µM
[28] = second compound 3.16 µM, first compound 1 µM
[29] = second compound 3.16 µM, first compound 3.16 µM
[30] = second compound 3.16 µM, first compound 10 µM
[31] = second compound 10 µM, first compound 0.0316 µM
[32] = second compound 10 µM, first compound 0.1 µM
[33] = second compound 10 µM, first compound 0.316 µM
[34] = second compound 10 µM, first compound 1 µM
[35] = second compound 10 µM, first compound 3.16 µM
[36] = second compound 10 µM, first compound 10 µM
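Note: spheroids exposed to the agents for one week.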
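Throughout, for viability, T/C: 100% = DMSO vehicle control wells.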

CNCc1ccc(-c2[nH]c3cc(F)cc4c3c2CCNC4=O)cc1 + COC1C(OC(N)=O)C(O)C(Oc2ccc3c(O)c(NC(=O)c4ccc(O)c(CC=C(C)C)c4)c(=O)oc3c2C)OC1(C)C
inactive: viability, T/C [1] 104% | viability, T/C [2] 100% | viability, T/C [3] 98.3% | viability, T/C [4] 109% | viability, T/C [5] 105% | viability, T/C [6] 85.4% | viability, T/C [7] 107% | viability, T/C [8] 106% | viability, T/C [9] 94.3% | viability, T/C [10] 90% | viability, T/C [11] 91.5% | viability, T/C [12] 78.6% | viability, T/C [13] 102% | viability, T/C [14] 103% | viability, T/C [15] 108% | viability, T/C [16] 90.3% | viability, T/C [17] 85.8% | viability, T/C [18] 81.3% | viability, T/C [19] 102% | viability, T/C [20] 101% | viability, T/C [21] 98.2% | viability, T/C [22] 107% | viability, T/C [23] 89% | viability, T/C [24] 77.4% | viability, T/C [25] 95.5% | viability, T/C [26] 89.9% | viability, T/C [27] 86.6% | viability, T/C [28] 79% | viability, T/C [29] 108% | viability, T/C [30] 70.1% | viability, T/C [31] 95.4% | viability, T/C [32] 80.8% | viability, T/C [33] 80.9% | viability, T/C [34] 73.1% | viability, T/C [35] 86.7% | viability, T/C [36] 78.8%
> 10 µM: IC50 (second compound 0.0316 µM) | IC50 (second compound 0.1 µM) | IC50 (second compound 0.316 µM) | IC50 (second compound 1 µM) | IC50 (second compound 3.16 µM) | IC50 (second compound 10 µM)

O=c1[nH]cc(F)c(=O)[nH]1 + Cc1cccc(N(C)C(=O)C2C(O)CCN2c2nc(C)cc(C(F)(F)F)c2C#N)c1
2.13 µM: IC50 (second compound 0.1 µM)
2.29 µM: IC50 (second compound 0.0316 µM)
2.54 µM: IC50 (second compound 3.16 µM)
2.1 µM: IC50 (second compound 0.316 µM)
inactive: viability, T/C [1] 102% | viability, T/C [2] 100% | viability, T/C [3] 93% | viability, T/C [4] 90% | viability, T/C [5] 34.6% | viability, T/C [6] 16.3% | viability, T/C [7] 89.5% | viability, T/C [8] 95.7% | viability, T/C [9] 97.8% | viability, T/C [10] 94.4% | viability, T/C [11] 26.9% | viability, T/C [12] 17.5% | viability, T/C [13] 108% | viability, T/C [14] 96.1% | viability, T/C [15] 102% | viability, T/C [16] 86.6% | viability, T/C [17] 29.7% | viability, T/C [18] 14.8% | viability, T/C [19] 103% | viability, T/C [20] 102% | viability, T/C [21] 98.1% | viability, T/C [22] 97.3% | viability, T/C [23] 31.1% | viability, T/C [24] 15.9% | viability, T/C [25] 103% | viability, T/C [26] 104% | viability, T/C [27] 101% | viability, T/C [28] 90.5% | viability, T/C [29] 40.6% | viability, T/C [30] 12.1% | viability, T/C [31] 104% | viability, T/C [32] 98.8% | viability, T/C [33] 111% | viability, T/C [34] 94.6% | viability, T/C [35] 38.3% | viability, T/C [36] 13.5%
2.49 µM: IC50 (second compound 10 µM)
2.28 µM: IC50 (second compound 1 µM)

COc1ccc([C@@H](O)c2cc(-c3ncnc4cc(N5CCOCC5)ccc34)c(F)cc2Cl)nn1 + Cc1cccc(N(C)C(=O)C2C(O)CCN2c2nc(C)cc(C(F)(F)F)c2C#N)c1
inactive: viability, T/C [1] 94% | viability, T/C [2] 85.9% | viability, T/C [3] 97.3% | viability, T/C [4] 98.3% | viability, T/C [5] 85.4% | viability, T/C [6] 58.2% | viability, T/C [7] 97.2% | viability, T/C [8] 99.5% | viability, T/C [9] 104% | viability, T/C [10] 94.6% | viability, T/C [11] 81.1% | viability, T/C [12] 63.9% | viability, T/C [13] 99.9% | viability, T/C [14] 104% | viability, T/C [15] 98.5% | viability, T/C [16] 84.3% | viability, T/C [17] 82.9% | viability, T/C [18] 62.6% | viability, T/C [19] 101% | viability, T/C [20] 93.5% | viability, T/C [21] 103% | viability, T/C [22] 103% | viability, T/C [23] 79% | viability, T/C [24] 62.7% | viability, T/C [25] 103% | viability, T/C [26] 102% | viability, T/C [27] 102% | viability, T/C [28] 86.9% | viability, T/C [29] 80.2% | viability, T/C [30] 60.5% | viability, T/C [31] 93.6% | viability, T/C [32] 95% | viability, T/C [33] 91.4% | viability, T/C [34] 83.7% | viability, T/C [35] 78% | viability, T/C [36] 57.9%
> 10 µM: IC50 (second compound 0.0316 µM) | IC50 (second compound 0.1 µM) | IC50 (second compound 0.316 µM) | IC50 (second compound 1 µM) | IC50 (second compound 3.16 µM) | IC50 (second compound 10 µM)
